This note sets out measurements from patent US7238659B2, “Reducing axon degeneration with proteasome inhibitors” (Children's Medical Center Corporation, priority 2003, dated 2007).

Peptide text beside a SMILES is read from it. * marks the point of attachment. Cbz = O=C(OCc1ccccc1)*

The test system of assay [1] is microtubules and neurofilaments of transected axons. Briefly: Breakdown of axonal cytoskeleton (microtubules, neurofilaments) in transected axons, immunostaining and Western blotting. The assay is classed as cell-based, rat. The following applies: transected axons. The text has this:
Microtubule destabilization at the initiation stage of Wallerian degeneration in vitro. We next examined which cellular events might correlate with the involvement of UPS and calpains in Wallerian degeneration. We monitored the integrity of different subcellular organelles in the transected axons by both immunocytochemistry and membrane labeling. […] At the protein level, we observed a corresponding cleavage of the neurofilament subunits, neurofilament 160 (NF-160) and neurofilament 68 (NF68) as detected by Western blotting.
Apart from these axonal markers, however, the earliest detectable change appears to occur in the microtubules of transected axons. […] After 12 hr post-axotomy, the stained signals of fragmented microtubule structures weakened gradually and were replaced by many spheroid bodies in severed axons. By 16 hr after axotomy, almost all of the detected signals were spheroid bodies along the tracts of original axons. Even 16 hrs after axotomy when the majority of the axonal NF160 and NF68 has been degraded, most of the tubulin proteins still remained intact and the protein level remained stable according to Western blotting. To provide additional biochemical evidence for such an axotomy-elicited microtubule destabilization in transected axons at early stages of Wallerian degeneration, we separated monomeric (soluble, S) and polymerized (pellet, P) tubulins from transected axons and measured the depolymerization ratio (S/[S+P]) at different time points.
UPS and calpains mediate the breakdown of axonal cytoskeleton components. To explore the link between these cellular and molecular changes during Wallerian degeneration, we next examined whether proteasome inhibitors, calpain inhibitors, and EGTA affect neurofilaments and microtubules in transected axons. […] On the other hand, ALLN only delayed neurofilament degradation, but not the fragmentation of microtubules.

The subject of assay [2] is corticospinal tract (CST) after midthoracic spinal cord transection with human Schwann cell grafts. Briefly: Corticospinal Tract (CST) Regeneration Assay. To be noted: inhibitor in fibrin glue; thirty-five days after grafting. Details: key: dramatically reduce (+++ or ++++) axonal degeneration; dramatically reduce (+++ or ++++) axonal degeneration. The assay is classed as in vivo, adult nude rat. On the procedure:
Corticospinal Tract (CST) Regeneration Assay. Proteasome inhibitors are assayed for their ability to improve corticospinal tract (CST) regeneration following thoracic spinal cord injury by promoting CST regeneration into human Schwann cell grafts in the methods of Guest et al. (1997, supra). […] Inhibitors are incorporated into a fibrin glue and placed in the same region. Anterograde tracing from the motor cortex using the dextran amine tracers, Fluororuby (FR) and biotinylated dextran amine (BDA), are performed. Thirty-five days after grafting, the CST response is evaluated qualitatively by looking for reduced degeneration of CST fibers in or beyond grafts and quantitatively by constructing camera lucida composites to determine the sprouting index (SI), the position of the maximum termination density (MTD) rostral to the GFAP-defined host/graft interface, and the longitudinal spread (LS) of bulbous end terminals. The latter two measures provide information about axonal die-back.

In assay [3] the test system is NGF-deprived sympathetic neurons. The assay is described as follows: Neurite degeneration in NGF-deprived sympathetic neurons. To be noted: 36 hr after NGF deprivation. The assay is classed as cell-based. From the text: Proteasome inhibitors also delay neurite degeneration in NGF-deprived sympathetic neurons. In addition to transected axons, axons from neurons that have been deprived of their physiological trophic factors may also undergo a Wallerian-like degeneration process (reviewed by Raff et al., 2002). If the distal part of an axon of a cultured sympathetic neuron is locally deprived of NGF, that part of the axon degenerates while the rest of the cell and axon survives (Campenot, 1982). Moreover, it has been shown that such an NGF deprivation-triggered axon degeneration is delayed in the sympathetic neurons from Wld^s mice (Deckwerth and Johnson, 1994). We thus decided to investigate whether UPS is also involved in NGF deprivation-triggered axon degeneration. Consistent with previous studies (for example, Deckwerth and Johnson, 1994), 36 hr after NGF deprivation, all of the cultured sympathetic neurons underwent a typical apoptosis program with death of cell bodies as detected by nuclei staining with Hoechst 33258 (a few normally stained nuclei are glial cells) and degeneration of axons as indicated by both morphological criteria and immunostaining.

As to `CC(C)C[C@@H](C=O)NC(=O)[C@H](CC(C)C)NC(=O)[C@H](CC(C)C)NC(=O)OCc1ccccc1` [MG-132, Carbobenzoxy-L-leucyl-L-leucyl-L-leucinal] (Cbz-Leu-Leu-Leu-aldehyde), in assay [1], the “degeneration of all examined subcellular markers (destabilization of microtubules and cleavage of neurofilaments)” value is “profoundly retarded”. Besides, the “Reduce Degeneration” value in assay [2] is on record as “+++”. Also, the “axon (neurite) degeneration after NGF deprivation” value in assay [3] was “the majority of the axons were still intact”. Moreover, the “death of cell bodies after NGF deprivation” value in assay [3] (Hoechst 33258 nuclei staining) was “still showed clear apoptotic staining”.
